Reference: patent publication US11878012B2, “Compositions and methods for treating traumatic brain injury” (Board of Regents, the University of Texas System, priority 2020, dated 2024)

Columns and labels:
TRPC1/4/5 channels = details: Rubaiy et al., 2017; cited from earlier work
seizure susceptibility [1] = test: Single subconvulsant PTZ challenge 7 days after CCI-TBI; type: in vivo, mice; details: PTZ 50 mg/kg single dose 7 days after TBI, n=14
Source text: TBI facilitates TRPC-dependent seizure susceptibility.
Controlled cortical impact traumatic brain injury. […] Apnea episodes lasted between 10-60 sec after impact.
Seizure susceptibility assays. Pentylenetetrazol kindling model.

seizure susceptibility [2] = test: PTZ kindling after sham or CCI-TBI
Protocol: The fact that only a portion of TBI cases become susceptible to epileptic seizures is a yet unanswered phenomenon in both preclinical and clinical studies. Therefore, we investigated seizure susceptibility within the CCI-TBI model to gain a greater understanding as to the etiology of hyperexcitability spread occurring post-injury. […] In our seizure susceptibility paradigm, 1 or 7 days after experimental procedure, mice were challenged with a subconvulsant dose of PTZ (35 mg/kg s.c.) once-daily to elicit kindling epileptogenesis (FIG. 6A). The progression of motor seizure behavior was observed and timed by direct observation linked to EEG activity (FIG. 6B).
We wished to understand if the TRPC channel upregulation after TBI could be targeted to impede epileptogenic activity. […] Seizure susceptibility was standardized according to the latency to forelimb clonus lasting greater than 5 sec.
Controlled cortical impact traumatic brain injury. The controlled cortical impact (CCI) traumatic brain injury (TBI) model was applied, with a closed skull impact approach. The CCI model causes TBI, but the skull remains intact with minimal hematoma. This type of brain injury model most closely simulates the TBI experienced during blunt-head injuries from vehicular accidents or falls. Mice were anesthetized with isoflurane (3% induction, 1% maintenance) in 100% O2. Body temperature of 37° C. was maintained using a temperature-controlled heated surgical table. The skull was fixed with ear-bars into a stereotaxic frame. A small midline incision was made on the scalp using aseptic surgical techniques. Impact was delivered by cylindrical probe of 5 mm diameter with an Impact One neurotrauma impactor (Leica Biosystems). A calibrated impact was delivered at 4.5 m/sec to a depth of 1 mm and 0.5 sec dwell time to the right parietal cortex (−1.8 mm ML, +2.0 mm AP, −1.0 mm DV). […] The scalp was then sutured closed and mice were placed in a warming recirculation unit and monitored until fully awake and moving freely. […] For consistency, the left hemisphere of both sham and TBI mice is designated as “contralateral” brain, and the right hemisphere is referred to as “ipsilateral”, despite no impact injury occurring in sham mice.
In vivo electroencephalograms. To determine seizure frequency and record brain susceptibility to seizures, mice were implanted with electroencephalogram (EEG) electrodes 24 hr after sham or TBI. A three-channel tethered EEG system was used. The electrode pedestal (P1 Technologies) was secured to the skull with three anchored dental screws and connected to a preamplifier with gain of 25. The three leads were inserted over the left frontal cortex, left parietal cortex, and depth electrode lead into the hippocampus. The Stellate Harmonie acquisition hardware and software were used to collect coincident video and EEG activity. EEGs were inspected for presence of epileptiform spikes and seizures.
Seizure susceptibility assays. Pentylenetetrazol kindling model. Seizure susceptibility was tested with the GABAA receptor antagonist pentylenetetrazol (PTZ) for progression of motor seizure activity. Mice were injected with PTZ (35 mg/kg, s.c.) once per day and scored for motor behavioral seizures.

DGGCs [3] = test: Ca2+ imaging with calcium green-1 in DGGCs of hippocampal slices, whole-cell mode; type: cell-based, mice; details: for peak calcium green-1 fluorescence increase: M1R stimulation
Protocol: (§1) Hippocampal Slice Preparation. […] Hippocampal slices were maintained in oxygenated ACSF at 30° C. for 60 min and experiments were performed at 25° C.
Ca2^+ Imaging. Concurrent with patch-clamp electrophysiology, neurons in slices were also imaged (Nikon FN-1, 40× water-immersion objective) via the fluorescent Ca^2+-reporter dye calcium green-1. As a hexapotassium salt, the dye (10 μm) was added to the intracellular patch pipette solution and neurons were patched under whole-cell clamp, as described above. Cells were loaded for 10 min before image acquisition. Fluorescence intensity was obtained using a SOLA Light Engine illumination source (Lumencor) with an output of 3.5 W through a 3-mm-diameter liquid light guide through a Nikon ET-GFP filter. Nikon Elements software was used for image acquisition through a QIClick CCD camera (QImaging). Images were acquired with an exposure time of 200 ms every 2 min using a single-channel, 12-bit rate and no binning. The shutter was closed between each acquisition. For each cell, the corrected total cell fluorescence was measured as the integrated density intensity—(cell area*mean background emission). Ca^2+ signals were measured as the change in fluorescence relative to the baseline fluorescence (ΔF/F0). Averages of four images were thresholded at 10%, masked using a highly averaged image of the cell, and encoded with a pseudocolor look-up table. Group cell fluorescence data were averaged in comparison with normalized intensity at each time point.

TRPC4/5 channels = details: description from literature; cited from earlier work
other TRPC channels = details: description; cited from earlier work
DGGCs [4] = test: Patch-clamp / current-clamp recordings of DGGCs in hippocampal slices (action potentials, AHP, IM amplitude); type: cell-based, mice
Protocol: as §1

DGGCs [5] = test: GCaMP6f brain slice Ca2+ imaging of DGGCs after sham or CCI-TBI; type: cell-based, mice; details: for Ca2+ influx events per neuron: 0.3 mM ACh 5 min; for duration of Ca2+ influx / peak amplitude of Ca2+ influx: ACh
Source text: Neuromodulation of TRPC generates robust Ca2+ influx and facilitates neuronal hyperexcitability. […] To assess the post-injury effect of TRPC channel upregulation on neurons, we used Ca2+ imaging in brain slice to measure excitability as a product of intracellular Ca2+ gating by TRPC1/4/5 channels (FIG. 4). […] Transgenic mice with the GCaMP6f transgene were used to detect changes in cellular Ca2+-activated fluorescence. We hypothesized that DGGC activity increases due to muscarinic stimulation with ACh or direct activation of TRPC4-containing channels with EA. Sensitivity was tested by bath perfusion of ACh or EA to the slice for 5 minutes during Ca2+ imaging to quantify peak amplitude of GCaMP6f fluorescence per cell, duration of Ca2+ influx, and the field-frequency of events (FIG. 4).
Brain slice Ca2+ imaging. Transverse slices (300 μm) of hippocampus were cut with a vibratome (Thermo Scientific Microm HM650V) from Cre-CamK2+/GCamp6f+/− mice. […] Hippocampal slices were maintained in oxygenated ACSF at 30° C. for 60 min, and experiments performed at 28° C. […] Neurons were visually identified with a Nikon FN-1 microscope equipped with a 40× water-immersion objective and infrared differential interference contrast. GCaMP6f fluorescence was obtained using a SOLA Light Engine Illumination source (Lumecor) with an output of 3.5W through a 3 mm diameter liquid light guide through a Nikon ET-GFP filter. Nikon Elements software was used for image acquisition through a QIClick CCD camera (Qlmaging) with a Uniblitz Model VMM-D 1 shutter driver. Baseline time series of the DG granule layer were acquired in the presence of bath solution perfusion for 2 min. […] Images were acquired in time series with an exposure time of 200 ms at 2-10 fps at 12-bit rate and no binning. Time-series image stacks were processed with ImageJ. Images were background subtracted using the mean of the 5% lowest pixel values. Ca2+ signal events were quantified for each cell as change in fluorescence divided by the baseline fluorescence (ΔF/FO) after background subtraction. ROI signals were detrended before quantification to account for drift due to gradual photobleaching of the background.

[6] = PTZ daily from 1 day post-TBI, TBI
[7] = PTZ daily from 1 day post-procedure, sham
[8] = PTZ daily from 7 days after TBI, TBI
[9] = PTZ daily from 7 days after procedure, sham
[10] = TRPC4/5 channels blocked, control or plus 77-LH-28-1 3 μM
[11] = IP3 receptor blockade, xestospongin C 10 μm

Cn1c(=O)n(CCCO)c(=O)c2c1nc(Oc1cccc(OC(F)(F)F)c1)n2Cc1ccc(Cl)cc1 [Pico145]
potency on TRPC1/4/5 channels (TRPC1/4/5 channels): picomolar potency

C1CCc2nnnn2CC1 [PTZ, pentylenetetrazol]
mice acquiring myoclonic jerks (seizure susceptibility [1]): 100%
mice with forelimb clonus seizures (seizure susceptibility [1]): 86%
latency to myoclonic jerks (seizure susceptibility [2]; PTZ 35 mg/kg s.c. daily from 1 day post-TBI, TBI): 4.4 ± 0.6 days
latency to myoclonic jerks (seizure susceptibility [2]; PTZ 35 mg/kg s.c. daily from 1 day post-procedure, sham): 9.5 ± 0.6 days
latency to forelimb clonus (seizure susceptibility [2]; [6]): 5.6 ± 0.7 days
latency to tonic-clonic seizure (seizure susceptibility [2]; [6]): 7.9 ± 0.7 days
latency to forelimb clonus (seizure susceptibility [2]; [7]): 11.3 ± 0.7 days
latency to tonic-clonic seizure (seizure susceptibility [2]; [7]): 12.5 ± 0.8 days
latency to forelimb clonus (seizure susceptibility [2]; [8]): 4.3 ± 0.8 days
latency to myoclonic jerks (seizure susceptibility [2]; [8]): 3.6 ± 0.7 days
latency to tonic-clonic seizure (seizure susceptibility [2]; [8]): 5.6 ± 1.2 days
latency to forelimb clonus (seizure susceptibility [2]; [9]): 12.0 ± 0.6 days
latency to myoclonic jerks (seizure susceptibility [2]; [9]): 9.8 ± 0.4 days
latency to tonic-clonic seizure (seizure susceptibility [2]; [9]): 13.1 ± 0.6 days
mice with lethal seizures on second tonic-clonic occurrence (seizure susceptibility [2]; PTZ kindling from 1 day post-TBI, TBI group): five out of eight

Cc1cc(N2CCCCC2)nc2ccccc12 [ML204, 4-Methyl-2-(1-piperidinyl)quinolone]
maximum calcium-green 1 emission on muscarinic stimulation (DGGCs [3]; M084 and ML204 together, 10 μm): 1.61±0.21 fold
effect on TRPC4/5 channels (TRPC4/5 channels): selectively inhibit
blockage of other TRPC channels (other TRPC channels): no appreciable blockage

CCCCC1CCN(CCCN2C(=O)CCc3ccccc32)CC1 [77-LH-28-1]
peak calcium green-1 fluorescence increase (DGGCs [3]; 77-LH-28-1 3 μm): 2.91±0.41 fold
peak calcium green-1 fluorescence increase (DGGCs [3]; 77-LH-28-1 10 μm): 4.27±0.95 fold
enhancement of IM amplitude (DGGCs [4]; 77-LH-28-1 3 μm with TRPC4/5 channels blocked): 1.83 ±0.14 fold
action potential firing rate (DGGCs [4]; 77-LH-28-1 3 μm, no TRPC4/5 blocker): significantly increased
enhancement of IM amplitude (DGGCs [4]; M1R stimulation in the absence of TRPC4/5 channel blockers): 1.92±0.10 fold
action potential threshold (DGGCs [4]; M084 10 μm + 77-LH-28-1 3 μm, n=8 cells): −46.1±1.5 mV
AHP amplitude (DGGCs [4]; [10]): 13.6 ± 0.9 mV
AHP area (DGGCs [4]; [10]): 264.8 ± 21.5 ms* mV
AHP decay (DGGCs [4]; [10]): 17.1 ± 0.8 ms

CC(=O)OCC[N+](C)(C)C [ACh, acetylcholine]
Ca2+ influx events per neuron (DGGCs [5]; contralateral TBI): 2.6±0.2 events/neuron
Ca2+ influx events per neuron (DGGCs [5]; ipsilateral TBI): 4.3±0.2 events/neuron
Ca2+ influx events per neuron (DGGCs [5]; sham control tissue): 1.8±0.3 events/neuron
duration of Ca2+ influx (DGGCs [5]; contralateral DGGCs): 6.12 ± 0.19 s
peak amplitude of Ca2+ influx (DGGCs [5]; contralateral DGGCs): 1.70±0.12 ΔF/F
duration of Ca2+ influx (DGGCs [5]; ipsilateral DGGCs): 8.51 ± 0.20 s
peak amplitude of Ca2+ influx (DGGCs [5]; ipsilateral TBI DGGCs): 4.31±0.58 ΔF/F

C1CCC[C@H]2CCCN3CC[C@@H](CCCCCC[C@@H]4CCCN5CC[C@@H](CC1)O[C@@H]45)O[C@@H]23 [xestospongin C]
rises in [Ca2+]i on mAChR stimulation (DGGCs [3]; [11]): substantial rises
action potential firing frequency on mAChR stimulation (DGGCs [4]; [11]): increased action potential firing frequency
M1R-mediated enhancement of IM (DGGCs [4]; xestospongin C 10 μm in the pipette): 1.67±0.14 fold

CCCCCCCCCCCCCCCCCCOCC(COP(=O)([O-])OCC[N+](C)(C)C)OC (stereo not drawn) [edelfosine]
maximum dye emission over that before agonist (DGGCs [3]; slices preincubated with edelfosine 10 μm, then 77-LH-28-1): 1.15±0.08 fold
